According to patent US20040258695A1, “Transferrin binding peptides and uses thereof” (priority 2003, published 2004):

T1: HRP alone (UniProt P00433 31-338)
T1 construct: Negative control probe for library 2; also called horseradish peroxidase
T1 sequence: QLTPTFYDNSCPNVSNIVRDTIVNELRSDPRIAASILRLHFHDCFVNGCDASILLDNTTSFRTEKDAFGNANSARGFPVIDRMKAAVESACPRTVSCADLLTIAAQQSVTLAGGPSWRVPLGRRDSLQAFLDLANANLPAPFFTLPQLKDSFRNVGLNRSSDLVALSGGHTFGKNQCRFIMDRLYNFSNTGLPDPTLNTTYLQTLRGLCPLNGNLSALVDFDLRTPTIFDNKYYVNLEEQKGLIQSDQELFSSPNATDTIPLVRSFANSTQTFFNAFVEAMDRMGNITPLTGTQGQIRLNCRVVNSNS

B1: M. catarrhalis TbpB N-lobe peptide avkykghwdfmtdva (peptide)
peptide: AVKYKGHWDFMTDVA
notes: SPOT peptide immobilised on cellulose membrane
B2: H. influenzae TbpB peptide APNSNENRHGQKYVY (peptide)
peptide: APNSNENRHGQKYVY
notes: library peptide
B3: M. catarrhalis TbpB N-lobe peptide kterydidanihgnr (peptide)
peptide: KTERYDIDANIHGNR
notes: as for B1
B4: M. catarrhalis TbpB N-lobe peptide dfmtdvanrrnrfse (peptide)
peptide: DFMTDVANRRNRFSE
notes: as for B1
B5: H. influenzae TbpB peptide IQSWSLRDLPNKKFY (peptide)
peptide: IQSWSLRDLPNKKFY
notes: library peptide
B6: M. catarrhalis TbpB N-lobe peptide wnlgpvggvfyngtt (peptide)
peptide: WNLGPVGGVFYNGTT
notes: as for B1
B7: H. influenzae TbpB peptide AALNLFDRNKPSLLN (peptide)
peptide: AALNLFDRNKPSLLN
notes: library peptide
B8: M. catarrhalis TbpB N-lobe peptide kkltgklfsnlqdrh (peptide)
peptide: KKLTGKLFSNLQDRH
notes: as for B1
B9: M. catarrhalis TbpB N-lobe peptide gklfsnlqdrhkgnv (peptide)
peptide: GKLFSNLQDRHKGNV
notes: as for B1
B10: H. influenzae TbpB peptide SALPVGGVATYKGTW (peptide)
peptide: SALPVGGVATYKGTW
notes: library peptide
B11: M. catarrhalis TbpB N-lobe peptide kghwdfmtdvanrrn (peptide)
peptide: KGHWDFMTDVANRRN
notes: as for B1
B12: M. catarrhalis TbpB N-lobe peptide fsevkensqagwyyg (peptide)
peptide: FSEVKENSQAGWYYG
notes: as for B1
B13: H. influenzae TbpB peptide RNSGGGQAYSRRSAT (peptide)
peptide: RNSGGGQAYSRRSAT
notes: library peptide
B14: H. influenzae TbpB peptide YKGTWSFITAAENGK (peptide)
peptide: YKGTWSFITAAENGK
notes: library peptide
B15: M. catarrhalis TbpB N-lobe peptide amgygmalskinlhn (peptide)
peptide: AMGYGMALSKINLHN
notes: as for B1
B16: M. catarrhalis TbpB N-lobe peptide nfkekkltgklfsnl (peptide)
peptide: NFKEKKLTGKLFSNL
notes: as for B1
B17: M. catarrhalis TbpB N-lobe peptide ydidanihgnrfrgs (peptide)
peptide: YDIDANIHGNRFRGS
notes: as for B1
B18: H. influenzae TbpB peptide GKFLAHDKKVLGVFS (peptide)
peptide: GKFLAHDKKVLGVFS
notes: library peptide
B19: H. influenzae TbpB peptide TDANKSQNRTHKLYD (peptide)
peptide: TDANKSQNRTHKLYD
notes: library peptide

What was measured:
[1] = system: TbpB N-lobe from H. somnus; assay: bTf C-lobe overlapping peptide library probed with HRP-labelled H. somnus TbpB N-lobe; format: binding
Excerpt: (§1) Transferrin binding determinants from two bovine pathogens, M. haemolytica and H. somnus, as well as potential conserved transferrin binding determinants derived therefrom, were identified as described in Example 1 and shown in Table 4 below. Briefly, purified TbpB N-lobes from M. haemolytica and H. somnus were labelled with HRP and used to probe the bTf C-lobe overlapping peptide library. The peptides from the library that bound to the indicated TbpB N-lobe are listed in the column below the species name. The common overlap sequence from adjacent peptides probed with M. haemolytica (*), H. somnus (**) or both ( ) TbpB N-lobes are indicated for the indicated regions.

[2] = system: TbpB N-lobe from M. haemolytica; assay: bTf C-lobe overlapping peptide library probed with HRP-labelled M. haemolytica TbpB N-lobe; format: binding
Excerpt: as §1

[3] = molecular target: T2, human transferrin (hTf), iron loaded (human, UniProt P02787 20-698); assay: SPOT peptide library 2 of TbpB N-lobe probed with HRP-hTf, chemiluminescence
T2 construct: Used as a labelled probe (beta-gal conjugate for library 1, HRP conjugate for library 2 and the solid-phase assay); also called β-gal-hTf; HRP conjugated hTf

HRP alone = molecular target: T1, HRP alone; assay: SPOT peptide library 2 probed with HRP alone, chemiluminescence
[4] = molecular target: T2, human transferrin (hTf), iron loaded; assay: TbpB overlapping peptide library probed with labelled hTf as in Example 1

T2 sequence (P02787 20-698 limits assumed): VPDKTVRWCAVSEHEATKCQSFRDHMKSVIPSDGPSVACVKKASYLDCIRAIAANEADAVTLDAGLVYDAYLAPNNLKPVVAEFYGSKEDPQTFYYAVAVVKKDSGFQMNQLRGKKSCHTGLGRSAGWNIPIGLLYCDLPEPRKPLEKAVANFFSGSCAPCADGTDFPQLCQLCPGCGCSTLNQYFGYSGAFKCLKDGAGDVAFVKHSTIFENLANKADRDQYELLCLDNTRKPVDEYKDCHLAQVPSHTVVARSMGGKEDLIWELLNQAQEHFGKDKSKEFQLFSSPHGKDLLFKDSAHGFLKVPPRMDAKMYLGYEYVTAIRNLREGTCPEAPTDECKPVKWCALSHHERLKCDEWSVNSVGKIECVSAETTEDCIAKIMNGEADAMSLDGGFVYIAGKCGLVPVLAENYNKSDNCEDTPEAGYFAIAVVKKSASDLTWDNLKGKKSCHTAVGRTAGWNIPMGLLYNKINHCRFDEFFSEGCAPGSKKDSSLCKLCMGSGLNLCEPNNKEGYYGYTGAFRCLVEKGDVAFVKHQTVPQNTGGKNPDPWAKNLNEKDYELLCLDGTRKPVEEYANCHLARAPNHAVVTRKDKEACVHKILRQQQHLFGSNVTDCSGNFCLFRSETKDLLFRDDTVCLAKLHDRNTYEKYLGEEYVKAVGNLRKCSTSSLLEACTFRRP

Molecule	binding to H. somnus TbpB N-lobe (bound peptide listed; None = did not bind) [1]	binding to M. haemolytica TbpB N-lobe (bound peptide listed; None = did not bind) [2]	binding result [3]	binding result (HRP alone)	binding result [4]
RDDTKCLASIAKKTY (TbpB N-lobes of Bovine Pathgens) [Peptide 16, bTf C-lobe library peptide]	RDDTKCLASIAKKTY	RDDTKCLASIAKKTY	–	–	–
ANINWNNLKDKKSCH (TbpB N-lobes of Bovine Pathgens) [Peptide 5, bTf C-lobe library peptide]	ANINWNNLKDKKSCH	ANINWNNLKDKKSCH	–	–	–
NNNEAWAKNLKKENF (TbpB N-lobes of Bovine Pathgens) [Peptide 9, bTf C-lobe library peptide]	NNNEAWAKNLKKENF	NNNEAWAKNLKKENF	–	–	–
CHLARGPNHAVVSRK (TbpB N-lobes of Bovine Pathgens) [Peptide 12, bTf C-lobe library peptide]	CHLARGPNHAVVSRK	CHLARGPNHAVVSRK	–	–	–
CAIGHQERTKCDRWS (TbpB N-lobes of Bovine Pathgens) [Peptide 2, bTf C-lobe library peptide]	CAIGHQERTKCDRWS	CAIGHQERTKCDRWS	–	–	–
HAVVSRKDKATCVEK (TbpB N-lobes of Bovine Pathgens) [Peptide 14, bTf C-lobe library peptide]	HAVVSRKDKATCVEK	HAVVSRKDKATCVEK	–	–	–
HQERTKCDRWSGFSG (TbpB N-lobes of Bovine Pathgens) [Peptide 3, bTf C-lobe library peptide]	HQERTKCDRWSGFSG	HQERTKCDRWSGFSG	–	–	–
MVKWCAIGHQERTKC (TbpB N-lobes of Bovine Pathgens) [Peptide 1, bTf C-lobe library peptide]	MVKWCAIGHQERTKC	MVKWCAIGHQERTKC	–	–	–
RAMTNLRQCSTSKLL (TbpB N-lobes of Bovine Pathgens) [Peptide 18, bTf C-lobe library peptide]	RAMTNLRQCSTSKLL	RAMTNLRQCSTSKLL	–	–	–
NSNERYYGYTGAFRC (TbpB N-lobes of Bovine Pathgens) [Peptide 6, bTf C-lobe library peptide]	NSNERYYGYTGAFRC	None	–	–	–
AWAKNLKKENFEVLC (TbpB N-lobes of Bovine Pathgens) [Peptide 10, bTf C-lobe library peptide]	None	AWAKNLKKENFEVLC	–	–	–
RGPNHAVVSRKDKAT (TbpB N-lobes of Bovine Pathgens) [Peptide 13, bTf C-lobe library peptide]	RGPNHAVVSRKDKAT	RGPNHAVVSRKDKAT	–	–	–
KTSDANINWNNLKDK (TbpB N-lobes of Bovine Pathgens) [Peptide 4, bTf C-lobe library peptide]	–	KTSDANINWNNLKDK	–	–	–
RYYGYTGAFRCLVEK (TbpB N-lobes of Bovine Pathgens) [Peptide 7, bTf C-lobe library peptide]	RYYGYTGAFRCLVEK	None	–	–	–
NTDGNNNEAWALK (NTDGNNNEAWAKNLK; TbpB N-lobes of Bovine Pathgens) [Peptide 8, bTf C-lobe library peptide]	NTDGNNNEAWALK	None	–	–	–
KCLASIAKKTYDSYL (TbpB N-lobes of Bovine Pathgens) [Peptide 17, bTf C-lobe library peptide]	KCLASIAKKTYDSYL	KCLASIAKKTYDSYL	–	–	–
SRKDKATCVEKILNK (TbpB N-lobes of Bovine Pathgens) [Peptide 15, bTf C-lobe library peptide]	SRKDKATCVEKILNK	None	–	–	–
NLKKENFEVLCKDGT (TbpB N-lobes of Bovine Pathgens) [Peptide 11, bTf C-lobe library peptide]	None	NLKKENFEVLCKDGT	–	–	–
B1	–	–	binds	no binding	–

Molecule	binding to H. somnus TbpB N-lobe (bound peptide listed; None = did not bind) [1]	binding to M. haemolytica TbpB N-lobe (bound peptide listed; None = did not bind) [2]	binding result [3]	binding result (HRP alone)	binding result [4]
B2	–	–	–	–	binds
B3	–	–	binds	no binding	–
B4	–	–	binds	no binding	–
B5	–	–	–	–	binds
B6	–	–	binds	no binding	–
B7	–	–	–	–	binds
B8	–	–	binds	no binding	–
B9	–	–	binds	no binding	–
B10	–	–	–	–	binds
B11	–	–	binds	no binding	–
B12	–	–	binds	no binding	–
B13	–	–	–	–	binds
B14	–	–	–	–	binds
B15	–	–	binds	no binding	–
B16	–	–	binds	no binding	–
B17	–	–	binds	no binding	–
B18	–	–	–	–	binds
B19	–	–	–	–	binds
